PubChem BioAssay AID504473 (NMMLSC, 2011)
Activity calls are given as the source filed them.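 The calls were made as follows: active = GFP ratio to DMSO above 1.5 or below 0.66; inactive = the rest.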

Assays:
Test in all cases: expression changes of rapamycin-responsive GFP fusion proteins, S. cerevisiae, GFP-tagged clone panel, flow cytometry (AID 504473);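 also: median GFP fluorescence of the cells measured by high-throughput flow cytometry; test concentration not given here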
[1] = biological target: General amino acid permease AGP1 (Saccharomyces cerevisiae S288c) (UniProt P25376); conditions: S. cerevisiae GFP-tagged strains, 3 h, YCL025C
[2] = system: YAL060W; conditions: S. cerevisiae GFP-tagged strains, 3 h
[3] = system: YAL061W; conditions: S. cerevisiae GFP-tagged strains, 3 h
[4] = system: YBL087C; conditions: S. cerevisiae GFP-tagged strains, 3 h
[5] = system: YBR072W; conditions: S. cerevisiae GFP-tagged strains, 3 h
[6] = system: YBR139W; conditions: S. cerevisiae GFP-tagged strains, 3 h
[7] = system: YBR208C; conditions: S. cerevisiae GFP-tagged strains, 3 h
[8] = system: YBR248C; conditions: S. cerevisiae GFP-tagged strains, 3 h
[9] = system: YCL064C; conditions: S. cerevisiae GFP-tagged strains, 3 h
[10] = system: YCR002C; conditions: S. cerevisiae GFP-tagged strains, 3 h
[11] = system: YCR005C; conditions: S. cerevisiae GFP-tagged strains, 3 h
[12] = system: YDL130W; conditions: S. cerevisiae GFP-tagged strains, 3 h
[13] = system: YDL204W; conditions: S. cerevisiae GFP-tagged strains, 3 h
[14] = system: YDL205C; conditions: S. cerevisiae GFP-tagged strains, 3 h
[15] = system: YDR070C; conditions: S. cerevisiae GFP-tagged strains, 3 h
[16] = system: YDR382W; conditions: S. cerevisiae GFP-tagged strains, 3 h
[17] = system: YDR399W; conditions: S. cerevisiae GFP-tagged strains, 3 h
[18] = system: YDR453C; conditions: S. cerevisiae GFP-tagged strains, 3 h
[19] = system: YEL007W; conditions: S. cerevisiae GFP-tagged strains, 3 h
[20] = system: YEL060C; conditions: S. cerevisiae GFP-tagged strains, 3 h
[21] = system: YEL063C; conditions: S. cerevisiae GFP-tagged strains, 3 h
[22] = system: YEL071W; conditions: S. cerevisiae GFP-tagged strains, 3 h
[23] = system: YER081W; conditions: S. cerevisiae GFP-tagged strains, 3 h
[24] = system: YER117W; conditions: S. cerevisiae GFP-tagged strains, 3 h
[25] = system: YER151C; conditions: S. cerevisiae GFP-tagged strains, 3 h
[26] = system: YER156C; conditions: S. cerevisiae GFP-tagged strains, 3 h
[27] = system: YFR031C-A; conditions: S. cerevisiae GFP-tagged strains, 3 h
[28] = system: YFR053C; conditions: S. cerevisiae GFP-tagged strains, 3 h
[29] = system: YGL036W; conditions: S. cerevisiae GFP-tagged strains, 3 h
[30] = system: YGL062W; conditions: S. cerevisiae GFP-tagged strains, 3 h
[31] = system: YGL135W; conditions: S. cerevisiae GFP-tagged strains, 3 h
[32] = system: YGL147C; conditions: S. cerevisiae GFP-tagged strains, 3 h
[33] = system: YGR019W; conditions: S. cerevisiae GFP-tagged strains, 3 h
[34] = system: YGR034W; conditions: S. cerevisiae GFP-tagged strains, 3 h
[35] = system: YGR088W; conditions: S. cerevisiae GFP-tagged strains, 3 h
[36] = system: YGR121C; conditions: S. cerevisiae GFP-tagged strains, 3 h
[37] = system: YHL021C; conditions: S. cerevisiae GFP-tagged strains, 3 h
[38] = system: YHR018C; conditions: S. cerevisiae GFP-tagged strains, 3 h
[39] = system: YHR087W; conditions: S. cerevisiae GFP-tagged strains, 3 h
[40] = system: YHR141C; conditions: S. cerevisiae GFP-tagged strains, 3 h
[41] = system: YHR144C; conditions: S. cerevisiae GFP-tagged strains, 3 h
[42] = system: YHR203C; conditions: S. cerevisiae GFP-tagged strains, 3 h
[43] = system: YIL043C; conditions: S. cerevisiae GFP-tagged strains, 3 h
[44] = system: YIL051C; conditions: S. cerevisiae GFP-tagged strains, 3 h
[45] = system: YIL052C; conditions: S. cerevisiae GFP-tagged strains, 3 h
[46] = system: YIL066C; conditions: S. cerevisiae GFP-tagged strains, 3 h
[47] = system: YIL069C; conditions: S. cerevisiae GFP-tagged strains, 3 h
[48] = system: YJL056C; conditions: S. cerevisiae GFP-tagged strains, 3 h
[49] = system: YJL144W; conditions: S. cerevisiae GFP-tagged strains, 3 h
[50] = system: YJR148W; conditions: S. cerevisiae GFP-tagged strains, 3 h
[51] = system: YKL086W; conditions: S. cerevisiae GFP-tagged strains, 3 h
[52] = system: YKL103C; conditions: S. cerevisiae GFP-tagged strains, 3 h
[53] = system: YKL119C; conditions: S. cerevisiae GFP-tagged strains, 3 h
[54] = system: YKR039W; conditions: S. cerevisiae GFP-tagged strains, 3 h
[55] = system: YKR093W; conditions: S. cerevisiae GFP-tagged strains, 3 h
[56] = system: YKR094C; conditions: S. cerevisiae GFP-tagged strains, 3 h
[57] = system: YLL026W; conditions: S. cerevisiae GFP-tagged strains, 3 h
[58] = system: YLL039C; conditions: S. cerevisiae GFP-tagged strains, 3 h
[59] = system: YLR058C; conditions: S. cerevisiae GFP-tagged strains, 3 h
[60] = system: YLR109W; conditions: S. cerevisiae GFP-tagged strains, 3 h
[61] = system: YLR142W; conditions: S. cerevisiae GFP-tagged strains, 3 h
[62] = system: YLR185W; conditions: S. cerevisiae GFP-tagged strains, 3 h
[63] = system: YLR237W; conditions: S. cerevisiae GFP-tagged strains, 3 h
[64] = system: YLR287C-A; conditions: S. cerevisiae GFP-tagged strains, 3 h
[65] = system: YLR367W; conditions: S. cerevisiae GFP-tagged strains, 3 h
[66] = system: YML004C; conditions: S. cerevisiae GFP-tagged strains, 3 h
[67] = system: YML026C; conditions: S. cerevisiae GFP-tagged strains, 3 h
[68] = system: YML034W; conditions: S. cerevisiae GFP-tagged strains, 3 h
[69] = system: YML063W; conditions: S. cerevisiae GFP-tagged strains, 3 h
[70] = system: YML128C; conditions: S. cerevisiae GFP-tagged strains, 3 h
[71] = system: YMR105C; conditions: S. cerevisiae GFP-tagged strains, 3 h
[72] = system: YMR120C; conditions: S. cerevisiae GFP-tagged strains, 3 h
[73] = system: YMR251W-A; conditions: S. cerevisiae GFP-tagged strains, 3 h
[74] = system: YMR307W; conditions: S. cerevisiae GFP-tagged strains, 3 h
[75] = system: YNL015W; conditions: S. cerevisiae GFP-tagged strains, 3 h
[76] = system: YNL068C; conditions: S. cerevisiae GFP-tagged strains, 3 h
[77] = system: YNL112W; conditions: S. cerevisiae GFP-tagged strains, 3 h
[78] = system: YNL142W; conditions: S. cerevisiae GFP-tagged strains, 3 h
[79] = system: YNL214W; conditions: S. cerevisiae GFP-tagged strains, 3 h
[80] = system: YNR001C; conditions: S. cerevisiae GFP-tagged strains, 3 h
[81] = system: YOL052C-A; conditions: S. cerevisiae GFP-tagged strains, 3 h
[82] = system: YOR038C; conditions: S. cerevisiae GFP-tagged strains, 3 h
[83] = system: YOR063W; conditions: S. cerevisiae GFP-tagged strains, 3 h
[84] = system: YOR136W; conditions: S. cerevisiae GFP-tagged strains, 3 h
[85] = system: YOR173W; conditions: S. cerevisiae GFP-tagged strains, 3 h
[86] = system: YOR182C; conditions: S. cerevisiae GFP-tagged strains, 3 h
[87] = system: YOR371C; conditions: S. cerevisiae GFP-tagged strains, 3 h
[88] = system: YOR375C; conditions: S. cerevisiae GFP-tagged strains, 3 h
[89] = system: YPL111W; conditions: S. cerevisiae GFP-tagged strains, 3 h
[90] = system: YPL131W; conditions: S. cerevisiae GFP-tagged strains, 3 h
[91] = system: YPL150W; conditions: S. cerevisiae GFP-tagged strains, 3 h
[92] = system: YPL220W; conditions: S. cerevisiae GFP-tagged strains, 3 h
[93] = system: YPL265W; conditions: S. cerevisiae GFP-tagged strains, 3 h
[94] = system: YPR132W; conditions: S. cerevisiae GFP-tagged strains, 3 h
[95] = system: YPR145W; conditions: S. cerevisiae GFP-tagged strains, 3 h
[96] = system: YPR184W; conditions: S. cerevisiae GFP-tagged strains, 3 h

Sequence of General amino acid permease AGP1 (Saccharomyces cerevisiae S288c) (P25376 whole entry, looked up): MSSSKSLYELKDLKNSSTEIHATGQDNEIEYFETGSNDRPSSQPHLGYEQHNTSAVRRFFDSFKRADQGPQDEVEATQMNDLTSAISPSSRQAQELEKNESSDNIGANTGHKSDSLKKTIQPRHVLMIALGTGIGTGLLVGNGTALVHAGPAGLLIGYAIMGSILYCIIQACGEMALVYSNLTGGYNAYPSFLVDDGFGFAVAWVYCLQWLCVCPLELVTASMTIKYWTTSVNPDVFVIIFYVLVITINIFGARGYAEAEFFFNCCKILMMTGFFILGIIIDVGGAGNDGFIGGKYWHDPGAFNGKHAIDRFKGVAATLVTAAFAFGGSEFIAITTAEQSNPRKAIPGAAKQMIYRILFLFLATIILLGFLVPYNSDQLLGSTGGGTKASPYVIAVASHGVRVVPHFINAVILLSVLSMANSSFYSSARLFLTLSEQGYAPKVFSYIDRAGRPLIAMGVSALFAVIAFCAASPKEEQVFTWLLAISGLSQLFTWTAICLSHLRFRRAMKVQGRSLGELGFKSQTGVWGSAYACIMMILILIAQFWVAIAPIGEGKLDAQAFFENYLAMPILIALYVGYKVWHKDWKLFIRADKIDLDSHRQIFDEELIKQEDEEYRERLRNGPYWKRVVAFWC

- GFP ratio to DMSO [1]: 0.804 (inactive)
Compound: CNc1nc(N)c([N+](=O)[O-])c(Nc2ccccc2OC)n1
- GFP ratio to DMSO [2]: 0.645
- GFP ratio to DMSO [3]: 0.668 (inactive)
- GFP ratio to DMSO [4]: 1.71
- GFP ratio to DMSO [5]: 3.23
- GFP ratio to DMSO [6]: 0.664 (inactive)
- GFP ratio to DMSO [7]: 0.657 (inactive)
- GFP ratio to DMSO [8]: 0.723 (inactive)
- GFP ratio to DMSO [9]: 0.707 (inactive)
- GFP ratio to DMSO [10]: 0.541
- GFP ratio to DMSO [11]: 0.783 (inactive)
- GFP ratio to DMSO [12]: 0.302
- GFP ratio to DMSO [13]: 0.703 (inactive)
- GFP ratio to DMSO [14]: 0.742 (inactive)
- GFP ratio to DMSO [15]: 0.503
- GFP ratio to DMSO [16]: 0.349
- GFP ratio to DMSO [17]: 2.04
- GFP ratio to DMSO [18]: 5.92
- GFP ratio to DMSO [19]: 0.721 (inactive)
- GFP ratio to DMSO [20]: 0.535
- GFP ratio to DMSO [21]: 0.998 (inactive)
- GFP ratio to DMSO [22]: 0.904 (inactive)
- GFP ratio to DMSO [23]: 0.632
- GFP ratio to DMSO [24]: 2.43
- GFP ratio to DMSO [25]: 0.745 (inactive)
- GFP ratio to DMSO [26]: 0.819 (inactive)
- GFP ratio to DMSO [27]: 0.381
- GFP ratio to DMSO [28]: 0.642
- GFP ratio to DMSO [29]: 0.643
- GFP ratio to DMSO [30]: 0.915 (inactive)
- GFP ratio to DMSO [31]: 1.01 (inactive)
- GFP ratio to DMSO [32]: 0.902 (inactive)
- GFP ratio to DMSO [33]: 0.679 (inactive)
- GFP ratio to DMSO [34]: 0.607
- GFP ratio to DMSO [35]: 0.767 (inactive)
- GFP ratio to DMSO [36]: 0.737 (inactive)
- GFP ratio to DMSO [37]: 0.726 (inactive)
- GFP ratio to DMSO [38]: 0.649
- GFP ratio to DMSO [39]: 1.71
- GFP ratio to DMSO [40]: 1.25 (inactive)
- GFP ratio to DMSO [41]: 0.68 (inactive)
- GFP ratio to DMSO [42]: 0.792 (inactive)
- GFP ratio to DMSO [43]: 0.829 (inactive)
- GFP ratio to DMSO [44]: 0.669 (inactive)
- GFP ratio to DMSO [45]: 0.379
- GFP ratio to DMSO [46]: 0.693 (inactive)
- GFP ratio to DMSO [47]: 0.717 (inactive)
- GFP ratio to DMSO [48]: 0.664 (inactive)
- GFP ratio to DMSO [49]: 7.28
- GFP ratio to DMSO [50]: 0.822 (inactive)
- GFP ratio to DMSO [51]: 0.777 (inactive)
- GFP ratio to DMSO [52]: 0.755 (inactive)
- GFP ratio to DMSO [53]: 0.774 (inactive)
- GFP ratio to DMSO [54]: 1.41 (inactive)
- GFP ratio to DMSO [55]: 0.526
- GFP ratio to DMSO [56]: 0.863 (inactive)
- GFP ratio to DMSO [57]: 0.761 (inactive)
- GFP ratio to DMSO [58]: 0.576
- GFP ratio to DMSO [59]: 0.606
- GFP ratio to DMSO [60]: 0.271
- GFP ratio to DMSO [61]: 0.7 (inactive)
- GFP ratio to DMSO [62]: 1.38 (inactive)
- GFP ratio to DMSO [63]: 3.5
- GFP ratio to DMSO [64]: 0.309
- GFP ratio to DMSO [65]: 0.847 (inactive)
- GFP ratio to DMSO [66]: 0.689 (inactive)
- GFP ratio to DMSO [67]: 1.64
- GFP ratio to DMSO [68]: 0.676 (inactive)
- GFP ratio to DMSO [69]: 0.482
- GFP ratio to DMSO [70]: 0.697 (inactive)
- GFP ratio to DMSO [71]: 0.849 (inactive)
- GFP ratio to DMSO [72]: 0.433
- GFP ratio to DMSO [73]: 0.286
- GFP ratio to DMSO [74]: 0.757 (inactive)
- GFP ratio to DMSO [75]: 1.84
- GFP ratio to DMSO [76]: 0.738 (inactive)
- GFP ratio to DMSO [77]: 0.867 (inactive)
- GFP ratio to DMSO [78]: 0.756 (inactive)
- GFP ratio to DMSO [79]: 0.786 (inactive)
- GFP ratio to DMSO [80]: 0.75 (inactive)
- GFP ratio to DMSO [81]: 2.31
- GFP ratio to DMSO [82]: 0.771 (inactive)
- GFP ratio to DMSO [83]: 0.813 (inactive)
- GFP ratio to DMSO [84]: 0.793 (inactive)
- GFP ratio to DMSO [85]: 0.726 (inactive)
- GFP ratio to DMSO [86]: 3.17
- GFP ratio to DMSO [87]: 0.67 (inactive)
- GFP ratio to DMSO [88]: 0.81 (inactive)
- GFP ratio to DMSO [89]: 0.779 (inactive)
- GFP ratio to DMSO [90]: 0.657 (inactive)
- GFP ratio to DMSO [91]: 0.677 (inactive)
- GFP ratio to DMSO [92]: 0.579
- GFP ratio to DMSO [93]: 0.542
- GFP ratio to DMSO [94]: 1.76
- GFP ratio to DMSO [95]: 0.81 (inactive)
- GFP ratio to DMSO [96]: 0.669 (inactive)
